Experimental data published in paper doi:10.1101/322404v1, “Discovery of a novel stereospecific β-hydroxyacyl-CoA lyase/thioesterase shared by three metabolic pathways in Mycobacterium tuberculosis” (biorxiv, 2018).

Assays:
Rv2498c [1] = molecular target: T1, Rv2498c (Mycobacterium tuberculosis, UniProt P9WPE1)
T1 construct: gene citE

Rv2498c [2] = molecular target: T1, Rv2498c; remark: listed apart in the source
Rv2498c [3] = molecular target: T1, Rv2498c; remark: listed apart in the source
Rv2498c [4] = molecular target: T1, Rv2498c; remark: listed apart in the source

T1 sequence (P9WPE1 whole entry): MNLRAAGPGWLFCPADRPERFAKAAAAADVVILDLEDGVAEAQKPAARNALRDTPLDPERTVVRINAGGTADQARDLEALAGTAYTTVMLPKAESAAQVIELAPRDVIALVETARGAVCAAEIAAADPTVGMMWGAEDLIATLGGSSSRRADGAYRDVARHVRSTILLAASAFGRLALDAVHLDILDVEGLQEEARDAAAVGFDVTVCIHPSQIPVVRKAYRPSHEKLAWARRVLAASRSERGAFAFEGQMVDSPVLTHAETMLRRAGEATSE

CC(C)(COP(=O)(O)OP(=O)(O)OC[C@H]1O[C@@H](n2cnc3c(N)ncnc32)[C@H](O)[C@@H]1OP(=O)(O)O)[C@@H](O)C(=O)NCCC(=O)NCCSC(=O)C[C@](C)(O)C(=O)O [(S)-citramalyl-CoA]
X-ray crystal structure, 1.83 A (Rv2498c [1]): two citramalyl-CoA molecules

CC(C)(COP(=O)(O)OP(=O)(O)OC[C@H]1O[C@@H](n2cnc3c(N)ncnc32)[C@H](O)[C@@H]1OP(=O)(O)O)[C@@H](O)C(=O)NCCC(=O)NCCS [CoA]
X-ray crystal structure, 1.72 A (6ARB) and 2.04 A (6AS5) (Rv2498c [2]): A magnesium ion, coordinated pyruvate, and CoA molecule were observed in the active sites

CC(C)(COP(=O)(O)OP(=O)(O)OC[C@H]1O[C@@H](n2cnc3c(N)ncnc32)[C@H](O)[C@@H]1OP(=O)(O)O)[C@@H](O)C(=O)NCCC(=O)NCCSC(=O)C[C@](C)(O)CC(=O)O [(R)-HMG-CoA]
HPLC lyase assay and 1H NMR of products (Rv2498c [3]): we found that Rv2498c is a lyase specific for the (R)-HMG-CoA

CC(C)(COP(=O)(O)OP(=O)(O)OC[C@H]1O[C@@H](n2cnc3c(N)ncnc32)[C@H](O)[C@@H]1OP(=O)(O)O)[C@@H](O)C(=O)NCCC(=O)NCCSC(=O)C[C@H](O)C(=O)O [(S)-malyl-CoA]
HPLC thioesterase assay (Rv2498c [4]): Rv2498c was found to subsequently catalyse the hydrolysis of the thioester bond of (S)-malyl-CoA
